Source: PubChem BioAssay AID328 (DTP/NCI, 2004)
Several values for one entry are separate records, joined by “and”; a condition that tells them apart may be missing. Identical values can stand only once. Inconclusive results and toxic doses are left out. The calls were made as follows: active = survival T/C of 150% or more; inactive = T/C below 125% in these data.

How the values were obtained:
[1] = system: BDF1 mice, P388 leukemia ip, median survival T/C; test: NCI In Vivo Anticancer Drug Screen. Data for tumor model P388 Leukemia (intraperitoneal) in B6D2F1 (BDF1) mice; details: endpoint: median survival time, schedule: Q04DX003 (ip), vehicle: water, higher = longer survival
Procedure, shortened: (§1)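 Reported as T/C, where T is the survival measurement in dosed animals and C the same measurement in vehicle controls.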

[2] = system: BDF1 mice, P388 leukemia ip; test: as above; details: endpoint: mean survival time, schedule: Q01DX009 (ip), vehicle: water, higher = longer survival
Procedure, shortened: as §1

Measured: T/C

CN(C)Cc1ccc(C(C)(C)C)cc1
inactive: [1]; dose: 6.25 mg/kg/injection 98 % of control | [1]; dose: 12.5 mg/kg/injection 112 % of control | [1]; dose: 25.0 mg/kg/injection 106 % of control | [1]; dose: 50.0 mg/kg/injection 106 % of control | [1]; dose: 100.0 mg/kg/injection 99 % of control and 100 % of control | [2]; dose: 3.12 mg/kg/injection 108 % of control | [2]; dose: 6.25 mg/kg/injection 100 % of control | [2]; dose: 12.5 mg/kg/injection 102 % of control | [2]; dose: 25.0 mg/kg/injection 96 % of control | [2]; dose: 100.0 mg/kg/injection 95 % of control
